The values that follow come from patent US20150004134A1, “TREATMENT OF CANCER WITH HETEROCYCLIC INHIBITORS OF GLUTAMINASE” (Calithera Biosciences, Inc., priority 2012, published 2015).

Where only a bound is given, the exact number is not on record here.

The test system of the experiment is P493-6 (myc "on") cells. The experiment in a line: Cell Proliferation Assay. Format: cell-based. The following applies: P493-6, 72 h, read-out: Cell prolif P493 72 h IC50, P493 cells, 72 h. How it is done: P493-6 (myc “on”) cells were maintained in growth media (RPMI-1640, 10% FBS, 2 mM glutamine, 100 units/ml Penicillin and 100 μg/ml streptomycin) at 37° C. with 5% CO2. For compound assay, P493-6 cells were plated in 96-well V-bottom plates on the day of compound addition in 50 μl of growth media at a cell density of 200,000 cells/ml (10,000 cells/well). Compounds were serially diluted in 100% DMSO at 200-times the final concentration. Compounds were diluted 100-fold into growth media and then 50 μl of this mixture was added to cell plates making the final concentration of DMSO 0.5%. Cells were incubated with compound for 72 hrs at 37° C. with 5% CO2 and analyzed for antiproliferative effects either by Cell Titer Glo (Promega) or FACS analysis using the Viacount (Millipore) kit on the Guava instrument.
By IC50 is commonly meant the concentration at which inhibition is half-maximal. With `O=C(Nc1nnc(CCCCc2nnc(NC(=O)C3CCCC3)s2)s1)C1CCCC1` [Compound 53], the half-inhibitory concentration (IC50) was 34 µM.

With `O=C(Nc1nnc(CCCCc2nnc(NC(=O)C3CCCO3)s2)s1)C1CCCO1` (stereo not shown) [Compound 54], the IC50 was found to be 1.6 µM.

With `O=C(Nc1nnc(CCCCc2nnc(NC(=O)C3CC4CCC3C4)s2)s1)C1CC2CCC1C2` (stereo not shown) [Compound 55], the IC50 was found to be 3.9 µM.

For `O=C(CC1CCCC1)Nc1nnc(CCSCCc2nnc(NC(=O)CC3CCCC3)s2)s1` [Compound 58], the IC50 came out at 3.7 µM.

As for `O=C(Cn1cccn1)Nc1nnc(CCCCc2nnc(NC(=O)Cn3cccn3)s2)s1` [Compound 60], the half-inhibitory concentration (IC50) is 14 µM.

Take `O=C(Nc1nnc(CCCCc2nnc(NC(=O)C3(C(F)(F)F)CC3)s2)s1)C1(C(F)(F)F)CC1` [Compound 62]: the IC50 was found to be 19 µM.

With `CC(C)(C)OC(=O)N1CCN(C(C(=O)Nc2nnc(CCCCc3nnc(NC(=O)C(c4ccccc4)N4CCN(C(=O)OC(C)(C)C)CC4)s3)s2)c2ccccc2)CC1` (stereo not shown) [Compound 63], the IC50 is 2.6 µM.

As to `O=C1CC(C(=O)Nc2nnc(CCCCc3nnc(NC(=O)C4CC(=O)c5ccccc54)s3)s2)c2ccccc21` (stereo not shown) [Compound 64], the half-inhibitory concentration (IC50) stood at 0.23 µM.

Turning to `COC(C(=O)Nc1nnc(CCCCc2nnc(NC(=O)C(OC)c3ccccc3)s2)s1)c1ccccc1` (stereo not shown) [Compound 65], the concentration for half-maximal inhibition (IC50) worked out at 0.52 µM.

In the case of `COC(C(=O)Nc1nnc(CCSCCc2nnc(NC(=O)C(OC)c3ccccc3)s2)s1)c1ccccc1` (stereo not shown) [Compound 67], the IC50 amounted to 1.8 µM.

On to `O=CO[C@@H](C(=O)Nc1nnc(CCCCc2nnc(NC(=O)[C@H](OC=O)c3ccccc3)s2)s1)c1ccccc1` [Compound 68], for which the IC50 was found to be 0.34 µM.

On to `O=C(Nc1nnc(CCCCc2nnc(NC(=O)C(O)Cc3ccccc3)s2)s1)C(O)Cc1ccccc1` (stereo not shown) [Compound 69], for which the IC50 was 0.33 µM.

For the molecule `CC(C)(C)OC(=O)N1CCN(C(C(=O)Nc2nnc(CCSCCc3nnc(NC(=O)Cc4ccccc4)s3)s2)c2ccccc2)CC1` (stereo not shown) [Compound 70], the IC50 was determined as 3.4 µM.

Take `CC(=O)O[C@H](C(=O)Nc1nnc(CCSCCc2nnc(NC(=O)[C@@H](OC(C)=O)c3ccccc3)s2)s1)c1ccccc1` [Compound 71]: the half-maximal inhibitory concentration (IC50) was 6.9 µM.

As for `O=C(Cc1ccccc1)Nc1nnc(CCCc2nnc(NC(=O)Cc3ccccc3)s2)s1` [Compound 72, N,N′-[5,5′-(propane-1,3-diyl)-bis(1,3,4-thiadiazole-5,2-diyl)]-bis(2-phenylacetamide)], the half-maximal inhibitory concentration (IC50) was 0.47 µM.

With `O=C(Nc1nnc(CCCCc2nnc(NC(=O)C(c3ccccc3)N3CCNCC3)s2)s1)C(c1ccccc1)N1CCNCC1` (stereo not shown) [Compound 77], the IC50 is 34 µM.

Consider `O=C(Cc1ccccc1)Nc1nnc(CCSCCc2nnc(NC(=O)C(c3ccccc3)N3CCNCC3)s2)s1` (stereo not shown) [Compound 78], for which the 50% inhibitory concentration (IC50) came out at 10 µM.

As for `O=C(Nc1nnc(CCSCCc2nnc(NC(=O)C(c3ccccc3)N3CCNCC3)s2)s1)C(c1ccccc1)N1CCNCC1` (stereo not shown) [Compound 79], the IC50 is 2 µM.

Consider `O=C(Nc1nnc(CCCCc2nnc(NC(=O)[C@H](O)c3ccccc3)s2)s1)[C@H](O)c1ccccc1` [Compound 80], for which the concentration for half-maximal inhibition (IC50) turned out to be 1.3 µM.

With `O=C(Nc1nnc(CCSCCc2nnc(NC(=O)[C@H](O)c3ccccc3)s2)s1)[C@H](O)c1ccccc1` [Compound 81], the half-inhibitory concentration (IC50) turned out to be 7.6 µM.

On to `O=C(Cc1ccco1)Nc1nnc(CCSCCc2nnc(NC(=O)Cc3ccco3)s2)s1` [Compound 82], for which the IC50 is 1.3 µM.

For the molecule `O=C(CC1CC1)Nc1nnc(CCSCCc2nnc(NC(=O)CC3CC3)s2)s1` [Compound 83], the IC50 was 1.4 µM.

On to `O=C(Cc1ccsc1)Nc1nnc(CCSCCc2nnc(NC(=O)Cc3ccsc3)s2)s1` [Compound 84], for which the concentration for half-maximal inhibition (IC50) is 0.89 µM.

Turning to `O=C(CC1CC1)Nc1nnc(CCCCc2nnc(NC(=O)CC3CC3)s2)s1` [Compound 85], the IC50 was 1.8 µM.

In the case of `O=C(Cc1ccco1)Nc1nnc(CCCCc2nnc(NC(=O)Cc3ccco3)s2)s1` [Compound 86], the IC50 worked out at 0.52 µM.

In the case of `O=C(Cc1cccs1)Nc1nnc(CCCCc2nnc(NC(=O)Cc3cccs3)s2)s1` [Compound 87], the concentration for half-maximal inhibition (IC50) worked out at 0.06 µM.

Turning to `O=C(Cc1ccsc1)Nc1nnc(CCCCc2nnc(NC(=O)Cc3ccsc3)s2)s1` [Compound 88], the IC50 amounted to 0.12 µM.

On to `O=C(Nc1nnc(CCCCc2nnc(NC(=O)[C@@H](O)c3ccccc3)s2)s1)[C@@H](O)c1ccccc1` [Compound 92], for which the half-inhibitory concentration (IC50) stood at 0.47 µM.

As for `O=C(Nc1nnc(CCSCCc2nnc(NC(=O)[C@@H](O)c3ccccc3)s2)s1)[C@@H](O)c1ccccc1` [Compound 93], the half-inhibitory concentration (IC50) was 2 µM.

On to `O=C(Nc1nnc(CCCCc2nnc(NC(=O)C3CC(O)c4ccccc43)s2)s1)C1CC(O)c2ccccc21` (stereo not shown) [Compound 94], for which the half-maximal inhibitory concentration (IC50) turned out to be 0.47 µM.

Regarding `O=C(Nc1nnc(CCSCCc2nnc(NC(=O)C3CCOC3)s2)s1)C1CCOC1` (stereo not shown) [Compound 95], the IC50 was 45 µM.

In the case of `Cc1cc(C)n(CC(=O)Nc2nnc(CCSCCc3nnc(NC(=O)Cn4nc(C)cc4C)s3)s2)n1` [Compound 97], the IC50 was 17 µM.

`CC(C)(C)OC(=O)Nc1cccc(CC(=O)Nc2nnc(CCSCCc3nnc(NC(=O)Cc4cccc(NC(=O)OC(C)(C)C)c4)s3)s2)c1` [Compound 98]: the concentration for half-maximal inhibition (IC50) was found to be 3.9 µM.

For the molecule `COCCC(=O)Nc1nnc(CCCCc2nnc(NC(=O)CCOC)s2)s1` [Compound 100], the half-maximal inhibitory concentration (IC50) worked out at 9 µM.

Regarding `COCCC(=O)Nc1nnc(CCSCCc2nnc(NC(=O)CCOC)s2)s1` [Compound 101], the concentration for half-maximal inhibition (IC50) was 17 µM.

Take `O=C(Cc1cccc(F)c1)Nc1nnc(CCSCCc2nnc(NC(=O)Cc3cccc(F)c3)s2)s1` [Compound 102]: the IC50 came to 1.4 µM.

With `CC1(C)OC(=O)[C@@H](CC(=O)Nc2nnc(CCCCc3nnc(NC(=O)C[C@H]4OC(C)(C)OC4=O)s3)s2)O1` [Compound 103], the half-inhibitory concentration (IC50) is over 50 µM.

On to `CCC(C)C(=O)Nc1nnc(CCSCCc2nnc(NC(=O)C(C)CC)s2)s1` (stereo not shown) [Compound 105], for which the IC50 is 119 µM.

In the case of `CCC(C)C(=O)Nc1nnc(CCCCc2nnc(NC(=O)C(C)CC)s2)s1` (stereo not shown) [Compound 107], the 50% inhibitory concentration (IC50) stood at 1.2 µM.

`CC(C)(C)OC(=O)N1CCC(CC(=O)Nc2nnc(CCSCCc3nnc(NC(=O)CC4CCN(C(=O)OC(C)(C)C)CC4)s3)s2)CC1` [Compound 111]: the IC50 came out at 0.88 µM.

For the molecule `CC(C)(C)OC(=O)N1CCCC(CC(=O)Nc2nnc(CCSCCc3nnc(NC(=O)CC4CCCN(C(=O)OC(C)(C)C)C4)s3)s2)C1` (stereo not shown) [Compound 112], the half-maximal inhibitory concentration (IC50) was 0.89 µM.

As for `CC(C)(C)OC(=O)N1CCC(CC(=O)Nc2nnc(CCCCc3nnc(NC(=O)CC4CCN(C(=O)OC(C)(C)C)CC4)s3)s2)CC1` [Compound 114], the IC50 is 0.56 µM.

Take `CC(C)(C)OC(=O)N1CCCC(CC(=O)Nc2nnc(CCCCc3nnc(NC(=O)CC4CCCN(C(=O)OC(C)(C)C)C4)s3)s2)C1` (stereo not shown) [Compound 115]: the IC50 was 1.1 µM.

With `O=C(Cc1cccs1)Nc1nnc(CCSCCc2nnc(NC(=O)Cc3cccs3)s2)s1` [Compound 116], the half-inhibitory concentration (IC50) worked out at 0.72 µM.

`COc1ccc2c(c1)CC(C(=O)Nc1nnc(CCSCCc3nnc(NC(=O)C4Cc5cc(OC)ccc5O4)s3)s1)O2` (stereo not shown) [Compound 117]: the IC50 amounted to 6.2 µM.

Take `O=C(Nc1nnc(CCSCCc2nnc(NC(=O)C3Cc4cc(Br)ccc4O3)s2)s1)C1Cc2cc(Br)ccc2O1` (stereo not shown) [Compound 118]: the IC50 stood at 36 µM.

As for `CC1(C(=O)Nc2nnc(CCSCCc3nnc(NC(=O)C4(C)CCCO4)s3)s2)CCCO1` (stereo not shown) [Compound 119], the 50% inhibitory concentration (IC50) amounted to 13 µM.

`O=C(Nc1nnc(CCCCc2nnc(NC(=O)C3Cc4cc(Cl)ccc4O3)s2)s1)C1Cc2cc(Cl)ccc2O1` (stereo not shown) [Compound 120]: the IC50 amounted to 38 µM.

`COc1ccc2c(c1)CC(C(=O)Nc1nnc(CCCCc3nnc(NC(=O)C4Cc5cc(OC)ccc5O4)s3)s1)O2` (stereo not shown) [Compound 121]: the IC50 stood at 3.5 µM.

Take `O=C(Nc1nnc(CCCCc2nnc(NC(=O)C3Cc4cc(Br)ccc4O3)s2)s1)C1Cc2cc(Br)ccc2O1` (stereo not shown) [Compound 122]: the IC50 was found to be 43 µM.

For the molecule `CC1(C(=O)Nc2nnc(CCCCc3nnc(NC(=O)C4(C)CCCO4)s3)s2)CCCO1` (stereo not shown) [Compound 123], the IC50 turned out to be 6.6 µM.

`O=C(C[C@@H](O)c1ccccc1)Nc1nnc(CCSCCc2nnc(NC(=O)C[C@@H](O)c3ccccc3)s2)s1` [Compound 126]: the IC50 came to 12 µM.

For the molecule `O=C(C[C@@H](O)c1ccccc1)Nc1nnc(CCCCc2nnc(NC(=O)C[C@@H](O)c3ccccc3)s2)s1` [Compound 127], the half-maximal inhibitory concentration (IC50) worked out at 0.45 µM.

Take `CC(=O)N[C@@H](C(=O)Nc1nnc(CCSCCc2nnc(NC(=O)[C@H](NC(C)=O)c3ccccc3)s2)s1)c1ccccc1` [Compound 128]: the IC50 is over 50 µM.

Consider `O=C(CC1CCNCC1)Nc1nnc(CCSCCc2nnc(NC(=O)CC3CCNCC3)s2)s1` [Compound 129], for which the half-inhibitory concentration (IC50) was over 50 µM.

As to `O=C(Nc1nnc(CCSCCc2nnc(NC(=O)C3Oc4ccccc4O3)s2)s1)C1Oc2ccccc2O1` [Compound 134], the half-inhibitory concentration (IC50) is 28 µM.

For the molecule `O=C(Nc1nnc(CCCCc2nnc(NC(=O)C3COc4ccccc43)s2)s1)C1COc2ccccc21` (stereo not shown) [Compound 135], the half-inhibitory concentration (IC50) was 0.49 µM.

Regarding `O=C(Nc1nnc(CCCCc2nnc(NC(=O)C3Oc4ccccc4O3)s2)s1)C1Oc2ccccc2O1` [Compound 136], the IC50 was determined as 4.7 µM.

For the molecule `O=C(N[C@@H](CO)C(=O)Nc1nnc(CCSCCc2nnc(NC(=O)[C@H](CO)NC(=O)OCc3ccccc3)s2)s1)OCc1ccccc1` [Compound 138], the IC50 was 2.7 µM.

As to `N[C@@H](CO)C(=O)Nc1nnc(CCCCc2nnc(NC(=O)[C@@H](N)CO)s2)s1` [Compound 140], the IC50 was over 50 µM.

For the molecule `CC[C@](O)(C(=O)Nc1nnc(CCSCCc2nnc(NC(=O)[C@@](O)(CC)c3ccccc3)s2)s1)c1ccccc1` [Compound 141], the IC50 was 4.3 µM.
